Ki data for 52 compounds are collected here from patent publication US10391095B2, “DNA-PK inhibitors” (Vertex Pharmaceuticals Incorporated, priority 2012, dated 2019).

For this assay, the target named is DNA-PK (Homo sapiens, UniProt P78527). The assay is described as follows: DNA-PK inhibition assay (radiometric, 33P-ATP). In kind it is biochemical. Conditions: 100 μM ATP, competitive tight-binding fit. Summed up:
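Approx. 6 nM DNA-PK with 10 µg/mL sheared dsDNA, 0.8 mg/mL peptide substrate and 100 µM 33P-ATP in HEPES pH 7.5, 10 mM MgCl2; 45 min, phosphoric acid quench. Phosphopeptide captured on filter plates and counted by scintillation; Ki from a competitive tight-binding model fit.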

In general, Ki refers to the equilibrium dissociation constant of an inhibitor or competing ligand from its target. Read a low Ki as higher affinity.

For `C[C@H](CNc1cc(-c2cnc3c(cnn3CCO)c2)ncn1)c1ccnc2cccnc12` [Compound 472], the Ki is below 30 nM.

As for `COc1nc(N)ncc1[C@H](C)CNc1cc(-c2ccc(C)nc2)ncn1` [Compound 475], the inhibition constant (Ki) was below 30 nM. `CNC(=O)c1ccnc2c([C@H](C)CNc3cc(-c4ccc(C)nc4)ncn3)cccc12` [Compound 476] gave a Ki below 30 nM.

In turn, `Cc1ccc(-c2cc(NCC(C)c3ccc(F)c4ccoc34)ncn2)cn1` (stereo not shown) [Compound 477] displayed a Ki below 30 nM.

As to `CNC(=O)c1ccc([C@H](C)CNc2cc(-c3ccc(C)nc3)ncn2)c(OC2CCC2)c1` [Compound 478], the Ki was below 30 nM. For `CNC(=O)c1ccc([C@H](C)CNc2cc(-c3ccnc4c3ccn4C3COC3)ncn2)c(OC)c1` [Compound 479], the Ki was below 30 nM.

Compound `C[C@H](CNc1cc(-c2ccc3ncccc3c2)ncn1)c1ccnc2c1OCC2` [Compound 480] gave a Ki below 30 nM.

In turn, `CNC(=O)c1ccc([C@H](C)CNc2cc(-c3cn(C4COC4)c4ncccc34)ncn2)c(OC)c1` [Compound 481] returned a Ki below 30 nM. The compound `CNCCNc1ccc(-c2cc(NC[C@@H](C)c3ccnc4c3OCC4)ncn2)cn1` [Compound 483] came in with a Ki below 30 nM. `CNC(=O)c1cc(C)nc2c([C@H](C)CNc3cc(-c4ccc(C)nc4)ncn3)cccc12` [Compound 484] registered a Ki below 30 nM. Consider `CNC(=O)c1ccc([C@H](C)CNc2cc(-c3ccc(C)nc3)ncn2)c2ncccc12` [Compound 485], for which the Ki is below 30 nM. In the case of `CCNc1ccc(-c2cc(NC[C@@H](C)c3ccnc4c3OCC4)ncn2)cn1` [Compound 486], the Ki is below 30 nM. Then `CNC(=O)c1ccc([C@H](C)CNc2cc(-c3cnc4c(c3)OCCN4C)ncn2)c(OC)c1` [Compound 490], with below 30 nM; and `C[C@H](CNc1cc(-c2cnc3c(cnn3C3COC3)c2)ncn1)c1ccnc2c1OCCO2` [Compound 493], with below 30 nM; and `Cc1ccc(-c2cc(NC[C@@H](C)c3cccc4c(C(N)=O)ccnc34)ncn2)cn1` [Compound 494], with below 30 nM.

Compound `Cc1ccc(-c2cc(NC[C@@H](C)c3ccnc4cccnc34)ncn2)cn1` [Compound 495] had a Ki below 30 nM. The compound `CNc1ncc(-c2cc(NC[C@@H](C)c3ccnc4cccnc34)ncn2)cn1` [Compound 497] gave a Ki below 30 nM. Then `C[C@H](CNc1cc(-c2ccc3ncccc3c2)ncn1)c1ccnc2cccnc12` [Compound 501], with below 30 nM; and `Cc1ccc(-c2cc(NC[C@@H](C)c3cc(C)nc4c3OCC4)ncn2)cn1` [Compound 502], with below 30 nM; and `CC(=O)N1CCOc2c([C@H](C)CNc3cc(-c4ccc(C)nc4)ncn3)cccc21` [Compound 504], with below 30 nM. The compound `Cc1cc([C@H](C)CNc2cc(-c3cnc4c(cnn4CCO)c3)ncn2)c2c(n1)CCO2` [Compound 505] yielded a Ki below 30 nM. `Cc1cc([C@H](C)CNc2cc(-c3ccc4ncccc4c3)ncn2)c2c(n1)CCO2` [Compound 508] registered a Ki below 30 nM. In turn, `CNC(=O)c1ccnc2c([C@H](C)CNc3cc(-c4ccc(C)nc4)ncn3)ccc(OC)c12` [Compound 509] showed a Ki below 30 nM.

Compound `Cc1ccc(-c2cc(NC[C@@H](C)c3cccc4c3OCCN4)ncn2)cn1` [Compound 513] had a Ki below 30 nM. Consider `CCNc1ccc(-c2cc(NC[C@@H](C)c3ccnc4cccnc34)ncn2)cn1` [Compound 514], for which the Ki is below 30 nM. Consider `CNC(=O)c1ccnc2c([C@H](C)CNc3cc(-c4ccc(C)nc4)ncn3)ccc(F)c12` [Compound 515], for which the Ki is below 30 nM. The value for `COc1ncc(-c2cc(NC[C@@H](C)c3ccnc4c3OCCO4)ncn2)cc1N` [Compound 519] was below 30 nM. Turning to `C[C@H](CNc1cc(-c2ccc(N3CCOCC3)nc2)ncn1)c1ccnc2c1OCCO2` [Compound 522], the Ki is below 30 nM. The value for `C[C@H](CNc1cc(-c2cnc3c(cnn3C3CN(C(=O)OC(C)(C)C)C3)c2)ncn1)c1ccnc2c1OCCO2` [Compound 526] was below 30 nM; that for `C[C@H](CNc1cc(-c2cnc3c(cnn3C3CNC3)c2)ncn1)c1ccnc2c1OCCO2` [Compound 527] was below 30 nM. `Cc1ccc(-c2cc(NC[C@@H](C)c3ccnc4c3OCCC4)ncn2)cn1` [Compound 535]: the Ki was below 30 nM.

`C[C@H](CNc1cc(-c2cnc3c(ccn3C3COC3)c2)ncn1)c1ccnc2c1OCCO2` [Compound 536]: the Ki is below 30 nM.

In turn, `C[C@H](CNc1cc(-c2ccc3ccncc3c2)ncn1)c1ccnc2c1OCCO2` [Compound 541] displayed a Ki below 30 nM. `CCNC(=O)c1ccnc2c([C@H](C)CNc3cc(-c4ccc(C)nc4)ncn3)cccc12` [Compound 545]: the Ki was below 30 nM. The value for `Cc1ccc(-c2cc(NC[C@@H](C)c3cccc4c(C(=O)NCC(F)(F)F)ccnc34)ncn2)cn1` [Compound 546] was below 30 nM; that for `[2H]C([2H])([2H])NC(=O)c1ccnc2c([C@H](C)CNc3cc(-c4ccc(C)nc4)ncn3)cccc12` [Compound 549] was below 30 nM. Compound `COc1ncc(-c2cc(NC[C@@H](C)c3ccnc4c3OCCO4)ncn2)cc1CO` [Compound 550] showed a Ki below 30 nM. Take `C[C@H](CNc1cc(-c2cnc(N)c(Cl)c2)ncn1)c1ccnc2c1OCCO2` [Compound 553]: the Ki is below 30 nM. `C[C@H](CNc1cc(-c2cnc(F)c(N)c2)ncn1)c1ccnc2c1OCCO2` [Compound 554] registered a Ki below 30 nM. The value for `Cc1ccc2cc(-c3cc(NC[C@@H](C)c4ccnc5c4OCCO5)ncn3)ccc2n1` [Compound 555] was below 30 nM.

In the case of `C[C@H](CNc1cc(-c2cc(F)c3ncccc3c2)ncn1)c1ccnc2c1OCCO2` [Compound 556], the Ki was below 30 nM. In turn, `C[C@H](CNc1cc(-c2cc(C(F)(F)F)c3ncccc3c2)ncn1)c1ccnc2c1OCCO2` [Compound 557] returned a Ki below 30 nM. With `C[C@H](CNc1cc(-c2cnc3ccccc3c2)ncn1)c1ccnc2c1OCCO2` [Compound 559], the Ki is below 30 nM.

The compound `CNC(=O)c1ccnc2c([C@H](C)CNc3cc(-c4ccc(C)nc4)ncn3)cc(F)cc12` [Compound 562] gave a Ki below 30 nM. `Cc1ccc(-c2cc(NC[C@@H](C)c3ccnc4cc(C)oc34)ncn2)cn1` [Compound 563] registered a Ki below 30 nM. `Cc1ccc(-c2cc(NC[C@@H](C)c3cccc4c(CO)ccnc34)ncn2)cn1` [Compound 568] showed a Ki below 30 nM. Then `Cc1ccc(-c2cc(NC[C@@H](C)c3cccc4c(C(=O)NCC(F)F)ccnc34)ncn2)cn1` [Compound 569], with below 30 nM; and `CCNc1ccc(-c2cc(NC[C@@H](C)c3cc(F)cc4c(C(=O)NC)ccnc34)ncn2)cn1` [Compound 572], with below 30 nM; and `CCNc1ccc(-c2cc(NC[C@@H](C)c3ccnc4cc(C)oc34)ncn2)cn1` [Compound 573], with below 30 nM. Regarding `CNc1ncc(-c2cc(NC[C@@H](C)c3cc(C)nc4c3OCC4)ncn2)cn1` [Compound 574], the Ki is below 30 nM. On to `CCNc1ccc(-c2cc(NC[C@@H](C)c3cc(C)nc4c3OCC4)ncn2)cn1` [Compound 575], for which the Ki was below 30 nM. `CNC(=O)c1ccnc2c([C@H](C)CNc3cc(-c4cnc(NC)nc4)ncn3)cccc12` [Compound 579]: the Ki is below 30 nM.
